The results in this text go back to ChEMBL document CHEMBL4043213, “β-Arrestin biased dopamine D2 receptor partial agonists: Synthesis and pharmacological evaluation” (Bioorg Med Chem, 2017).

Series [1] has as its target Sigma non-opioid intracellular receptor 1 (Homo sapiens, UniProt Q99720). Nature of the series: Displacement of [3H]prazosin from human sigma1 receptor. (In general: Loss of bound radioactivity is the signal in a displacement assay; it reports binding, not function.)
Series [2] addresses T1, 5-hydroxytryptamine receptor 1A (Homo sapiens, UniProt P08908).
T1 sequence (P08908 whole entry): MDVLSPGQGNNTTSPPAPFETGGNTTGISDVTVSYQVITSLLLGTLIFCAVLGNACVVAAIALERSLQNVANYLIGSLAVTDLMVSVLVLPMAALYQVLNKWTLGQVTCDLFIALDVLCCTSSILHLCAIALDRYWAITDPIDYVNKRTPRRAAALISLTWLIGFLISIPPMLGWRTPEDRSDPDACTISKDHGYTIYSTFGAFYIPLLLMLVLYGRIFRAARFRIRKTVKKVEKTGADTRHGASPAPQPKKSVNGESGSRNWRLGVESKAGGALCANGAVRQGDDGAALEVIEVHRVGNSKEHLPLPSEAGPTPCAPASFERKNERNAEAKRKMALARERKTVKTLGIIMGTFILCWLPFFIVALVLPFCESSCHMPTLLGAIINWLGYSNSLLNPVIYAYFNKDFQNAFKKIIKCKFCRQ
The series can be described thus: Displacement of [3H]WAY100635 from human 5-HT1AR.

Series [3] concerns the target T2, D(2) dopamine receptor (Homo sapiens, UniProt P14416). The series can be described thus: biochemical. The series is classed as cell-based.
Target sequence in this assay (P14416 whole entry): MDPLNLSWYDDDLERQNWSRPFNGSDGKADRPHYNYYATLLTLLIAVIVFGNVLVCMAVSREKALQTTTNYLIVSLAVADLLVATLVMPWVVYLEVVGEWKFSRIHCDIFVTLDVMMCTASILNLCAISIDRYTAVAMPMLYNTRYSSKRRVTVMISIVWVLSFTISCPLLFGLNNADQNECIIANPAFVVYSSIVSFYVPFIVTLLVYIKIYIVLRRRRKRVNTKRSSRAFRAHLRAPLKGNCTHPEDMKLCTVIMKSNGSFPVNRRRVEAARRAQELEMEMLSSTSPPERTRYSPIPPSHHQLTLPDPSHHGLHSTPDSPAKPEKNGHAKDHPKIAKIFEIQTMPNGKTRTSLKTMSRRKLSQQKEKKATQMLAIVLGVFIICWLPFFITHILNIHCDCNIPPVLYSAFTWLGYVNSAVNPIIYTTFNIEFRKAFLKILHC
Description: Displacement of [3H]spiperone from human D2LR expressed in CHO cell membranes
Series [4] has as its target T2, D(2) dopamine receptor. Nature of the series: biochemical. Type of series: cell-based. This is another data set of the same source.
Target sequence in this assay (P14416 whole entry): as above
Description: Displacement of [3H]spiperone from human D2SR expressed in CHO cell membranes
A further series deals with T3, D(4) dopamine receptor (Homo sapiens, UniProt P21917).
T3 sequence (P21917 whole entry): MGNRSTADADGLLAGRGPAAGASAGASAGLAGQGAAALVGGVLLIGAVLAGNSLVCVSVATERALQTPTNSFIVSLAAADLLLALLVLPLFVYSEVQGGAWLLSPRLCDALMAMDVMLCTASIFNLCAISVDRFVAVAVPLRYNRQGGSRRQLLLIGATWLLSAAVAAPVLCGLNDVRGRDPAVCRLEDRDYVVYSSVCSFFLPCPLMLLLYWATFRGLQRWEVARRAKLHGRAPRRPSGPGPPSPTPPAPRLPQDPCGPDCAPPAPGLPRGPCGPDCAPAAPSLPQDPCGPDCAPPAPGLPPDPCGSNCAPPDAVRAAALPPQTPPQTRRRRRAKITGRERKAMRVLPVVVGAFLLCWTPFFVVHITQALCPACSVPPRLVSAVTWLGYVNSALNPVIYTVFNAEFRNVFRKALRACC
Nature of the series: biochemical. The series is classed as cell-based.

The next series has as its target D(1A) dopamine receptor (Homo sapiens, UniProt P21728). Nature of the series: biochemical.
The target of the next series is D(3) dopamine receptor (Homo sapiens, UniProt P35462). Nature of the series: biochemical.
For another series, the target named is D(1B) dopamine receptor (Homo sapiens, UniProt P21918). Nature of the series: biochemical.
In series [5] the target is 5-hydroxytryptamine receptor 2A (Homo sapiens, UniProt P28223). Nature of the series: biochemical.
Description: Displacement of [3H]ketanserin from human 5-HT2AR expressed in HEK293T cell membranes1
Series [6] is described as follows: Displacement of [3H]prazosin from […] receptor in porcine cerebral cortex homogenates. The series is classed as tissue-based, Sus scrofa.
Series [7] has as its target T2, D(2) dopamine receptor. Type of series: cell-based, HEK293.
Target sequence in this assay (P14416 whole entry): as the sequence (P14416 whole entry) above
Description: Agonist activity at human D2SR expressed in HEK293 cells incubated for 5 hrs by beta-Arrestin 2 recruitment assay
For series [8], the target named is T2, D(2) dopamine receptor. The series is classed as ADME, cell-based. The following applies: hek293.
Target sequence in this assay (P14416 whole entry, looked up, change not shown): as the sequence (P14416 whole entry) above
Description: Agonist activity at human D2SR expressed in HEK293 cell membranes co-expressing PTX insensitive variant of Galphao1 incubated for 30 mins by [35S]GTP-gammaS binding assay
The target of series [9] is T2, D(2) dopamine receptor. The following applies: hek293, 0.5 h, 10 µM.
Target sequence in this assay (P14416 whole entry, looked up, change not shown): as the sequence (P14416 whole entry) above
Description: Agonist activity at human D2SR expressed in HEK293 cell membranes co-expressing PTX insensitive variant of Galphao1 at 10 uM incubated for 30 mins by [35S]GTP-gammaS binding assay relative to quinpirole

Sequence of D(1A) dopamine receptor (P21728 whole entry): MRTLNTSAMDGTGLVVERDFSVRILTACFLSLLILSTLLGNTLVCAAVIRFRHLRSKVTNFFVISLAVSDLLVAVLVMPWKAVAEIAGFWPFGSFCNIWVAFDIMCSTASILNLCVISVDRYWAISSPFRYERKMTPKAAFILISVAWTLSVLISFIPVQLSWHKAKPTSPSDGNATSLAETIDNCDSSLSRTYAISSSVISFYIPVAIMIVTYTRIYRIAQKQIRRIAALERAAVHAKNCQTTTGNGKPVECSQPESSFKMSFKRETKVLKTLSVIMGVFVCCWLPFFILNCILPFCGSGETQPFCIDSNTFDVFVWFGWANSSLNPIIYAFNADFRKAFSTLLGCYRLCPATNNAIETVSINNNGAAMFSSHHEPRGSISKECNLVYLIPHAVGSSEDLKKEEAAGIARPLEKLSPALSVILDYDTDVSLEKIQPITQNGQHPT
Sequence of D(1B) dopamine receptor (P21918 whole entry): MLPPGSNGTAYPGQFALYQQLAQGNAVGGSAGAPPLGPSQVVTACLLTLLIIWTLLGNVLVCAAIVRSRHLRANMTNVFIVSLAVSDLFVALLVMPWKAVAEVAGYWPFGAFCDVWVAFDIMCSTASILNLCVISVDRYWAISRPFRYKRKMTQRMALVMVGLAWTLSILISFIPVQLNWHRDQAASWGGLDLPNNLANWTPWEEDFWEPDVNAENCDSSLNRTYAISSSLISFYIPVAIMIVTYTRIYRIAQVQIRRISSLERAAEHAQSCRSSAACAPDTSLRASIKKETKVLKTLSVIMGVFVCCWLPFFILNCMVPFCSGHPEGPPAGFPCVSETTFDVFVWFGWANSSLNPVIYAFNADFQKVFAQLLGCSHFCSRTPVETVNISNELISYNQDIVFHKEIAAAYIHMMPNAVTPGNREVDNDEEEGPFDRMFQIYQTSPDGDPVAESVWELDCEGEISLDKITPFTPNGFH
Sequence of D(3) dopamine receptor (P35462 whole entry): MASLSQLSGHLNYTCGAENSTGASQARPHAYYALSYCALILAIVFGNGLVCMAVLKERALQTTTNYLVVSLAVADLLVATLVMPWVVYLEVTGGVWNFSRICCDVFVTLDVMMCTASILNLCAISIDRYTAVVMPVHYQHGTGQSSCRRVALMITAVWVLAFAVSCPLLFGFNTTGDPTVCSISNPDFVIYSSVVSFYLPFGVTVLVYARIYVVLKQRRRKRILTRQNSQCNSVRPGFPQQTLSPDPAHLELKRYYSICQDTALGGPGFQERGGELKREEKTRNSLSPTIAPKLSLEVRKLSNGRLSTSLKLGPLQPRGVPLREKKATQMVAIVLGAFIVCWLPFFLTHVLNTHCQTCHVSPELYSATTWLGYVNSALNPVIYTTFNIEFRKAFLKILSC
Sequence of 5-hydroxytryptamine receptor 2A (P28223 whole entry): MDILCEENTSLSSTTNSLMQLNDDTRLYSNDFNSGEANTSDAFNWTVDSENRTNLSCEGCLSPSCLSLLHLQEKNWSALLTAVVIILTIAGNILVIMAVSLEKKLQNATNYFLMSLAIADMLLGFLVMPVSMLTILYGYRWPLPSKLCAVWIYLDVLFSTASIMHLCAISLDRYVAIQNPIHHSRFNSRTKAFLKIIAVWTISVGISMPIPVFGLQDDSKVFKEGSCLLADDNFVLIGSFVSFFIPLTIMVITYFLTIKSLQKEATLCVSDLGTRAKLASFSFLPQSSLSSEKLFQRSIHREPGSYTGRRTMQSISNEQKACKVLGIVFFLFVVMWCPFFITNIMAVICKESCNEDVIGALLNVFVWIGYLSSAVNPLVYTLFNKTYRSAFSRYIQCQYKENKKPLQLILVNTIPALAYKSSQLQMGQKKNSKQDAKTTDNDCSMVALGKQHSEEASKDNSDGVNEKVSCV
Sequence of Sigma non-opioid intracellular receptor 1 (Q99720 whole entry): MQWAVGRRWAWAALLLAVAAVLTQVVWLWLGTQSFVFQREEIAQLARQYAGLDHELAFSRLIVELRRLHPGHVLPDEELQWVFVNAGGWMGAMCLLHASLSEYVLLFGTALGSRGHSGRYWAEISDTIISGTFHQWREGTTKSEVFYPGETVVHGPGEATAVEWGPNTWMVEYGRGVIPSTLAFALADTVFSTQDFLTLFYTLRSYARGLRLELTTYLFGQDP
Description for D(1A) dopamine receptor: Displacement of [3H]SCH23390 from human D1R expressed in HEK293T cell membranes
Description for D(1B) dopamine receptor: Displacement of [3H]SCH23390 from human D5R expressed in HEK293T cell membranes
Description for D(3) dopamine receptor: Displacement of [3H]spiperone from human D3R expressed in CHO cell membranes
Description for D(4) dopamine receptor: Displacement of [3H]spiperone from human D4R expressed in CHO cell membranes

As a reminder, the Ki is the dissociation constant of the complex between target and ligand, obtained from inhibition or displacement. Lower therefore signals a stronger hold on the target. In the case of `Oc1ccc(N2CCNCC2)c2c1OCCO2`, the inhibitory constant (Ki) in series [1] was 4200 nM; in [2], > 20000 nM; on D(2) dopamine receptor [3], 6900 nM; on D(2) dopamine receptor [4] it was 6000 nM; at D(4) dopamine receptor it was > 18000 nM; at D(1A) dopamine receptor it was 6000 nM. Also, the Ki on D(3) dopamine receptor is 110 nM; on D(1B) dopamine receptor, > 20000 nM; in [5] it was 3600 nM.
One may read the EC50 as the midpoint of the concentration-response curve. A higher EC50 goes with weaker potency. For orientation: Emax means the maximal effect, on the per cent scale that the assay sets. Turning to `O=C1COc2c(N3CCN(CCCCOc4ccn5ncc(/C=N/O)c5c4)CC3)ccc(O)c2N1` (stereo in doubt; 9d), the Ki at D(2) dopamine receptor [3] worked out at 0.98 nM; on D(2) dopamine receptor [4], 0.95 nM; on D(4) dopamine receptor, 3.9 nM; in [6], 17 nM; at D(1A) dopamine receptor, 3800 nM; on D(3) dopamine receptor, 0.39 nM. Besides, the Ki at D(1B) dopamine receptor is > 15000 nM; in series [5], 880 nM. For the same compound, the EC50 at D(2) dopamine receptor [7] (hek293) is 110 nM; on D(2) dopamine receptor [8], > 1000 nM. The same compound showed an Emax at D(2) dopamine receptor [9] of 18%.
Turning to `O=Cc1cnn2ccc(OCCCCN3CCN(c4ccc(O)c5c4OCC(=O)N5)CC3)cc12`, the inhibition constant (Ki) on D(2) dopamine receptor [3] is 1.1 nM; at D(2) dopamine receptor [4], 0.73 nM; at D(4) dopamine receptor, 10 nM; in series [6], 11 nM; at D(1A) dopamine receptor, 12000 nM; at D(3) dopamine receptor it was 1.2 nM. Besides, the values for the inhibition constant (Ki) (on D(1B) dopamine receptor; in series [5]) were 7700 nM and 2900 nM, respectively. Besides, the figures for the EC50 at D(2) dopamine receptor [7] and at D(2) dopamine receptor [8] were 68 nM and > 1000 nM, respectively. On D(2) dopamine receptor [9], the Emax was found to be 15%.
